# System: CCRF-CEM
# Test: Cytotoxicity against human CCRF-CEM cells assessed as effect on cell growth at 10 uM incubated for 48 hrs by sulforhodamine B assay
# Type: cell-based
# Conditions: not given
row,SMILES,Activity
1,O=C(NCc1ccccc1Cl)[C@@H]1CCC(=O)N1Cc1ccccc1Cl,Non-Toxic
2,O=C(NCc1ccccc1Cl)[C@@H]1CCC(=O)N1c1ccccc1,Non-Toxic
3,O=C(NCc1ccc(Cl)cc1Cl)[C@@H]1CCC(=O)N1c1nccs1,Non-Toxic
4,Cc1ccc(NC(=O)[C@@H]2CCC(=O)N2c2ccccc2)cc1,Non-Toxic

# System: K562
# Test: Cytotoxicity against human K562 cells assessed as effect on cell growth at 10 uM incubated for 48 hrs by sulforhodamine B assay
# Type: cell-based
# Conditions: k562, 48 h
row,SMILES,Activity
1,O=C(NCc1ccccc1Cl)[C@@H]1CCC(=O)N1Cc1ccccc1Cl,Non-Toxic
2,O=C(NCc1ccccc1Cl)[C@@H]1CCC(=O)N1c1ccccc1,Non-Toxic
3,O=C(NCc1ccc(Cl)cc1Cl)[C@@H]1CCC(=O)N1c1nccs1,Non-Toxic
4,Cc1ccc(NC(=O)[C@@H]2CCC(=O)N2c2ccccc2)cc1,Non-Toxic

# System: HOP-62
# Test: Cytotoxicity against human HOP62 cells assessed as effect on cell growth at 10 uM incubated for 48 hrs by sulforhodamine B assay
# Type: cell-based
# Conditions: hop-62, 48 h
row,SMILES,Activity
1,O=C(NCc1ccccc1Cl)[C@@H]1CCC(=O)N1Cc1ccccc1Cl,Non-Toxic
2,O=C(NCc1ccccc1Cl)[C@@H]1CCC(=O)N1c1ccccc1,Non-Toxic
3,O=C(NCc1ccc(Cl)cc1Cl)[C@@H]1CCC(=O)N1c1nccs1,Non-Toxic
4,Cc1ccc(NC(=O)[C@@H]2CCC(=O)N2c2ccccc2)cc1,Non-Toxic

# System: NCI-H226
# Test: Cytotoxicity against human NCI-H226 cells assessed as effect on cell growth at 10 uM incubated for 48 hrs by sulforhodamine B assay
# Type: cell-based
# Conditions: nci-h226, 48 h
row,SMILES,Activity
1,O=C(NCc1ccccc1Cl)[C@@H]1CCC(=O)N1Cc1ccccc1Cl,Non-Toxic
2,O=C(NCc1ccccc1Cl)[C@@H]1CCC(=O)N1c1ccccc1,Non-Toxic
3,O=C(NCc1ccc(Cl)cc1Cl)[C@@H]1CCC(=O)N1c1nccs1,Non-Toxic
4,Cc1ccc(NC(=O)[C@@H]2CCC(=O)N2c2ccccc2)cc1,Non-Toxic

# System: SF-268
# Test: Cytotoxicity against human SF268 cells assessed as effect on cell growth at 10 uM incubated for 48 hrs by sulforhodamine B assay
# Type: cell-based
# Conditions: sf-268, 48 h
row,SMILES,Activity
1,O=C(NCc1ccccc1Cl)[C@@H]1CCC(=O)N1Cc1ccccc1Cl,Non-Toxic
2,O=C(NCc1ccccc1Cl)[C@@H]1CCC(=O)N1c1ccccc1,Non-Toxic
3,O=C(NCc1ccc(Cl)cc1Cl)[C@@H]1CCC(=O)N1c1nccs1,Non-Toxic
4,Cc1ccc(NC(=O)[C@@H]2CCC(=O)N2c2ccccc2)cc1,Non-Toxic

# System: LOX IMVI
# Test: Cytotoxicity against human LOXIMVI cells assessed as effect on cell growth at 10 uM incubated for 48 hrs by sulforhodamine B assay
# Type: cell-based
# Conditions: not given
row,SMILES,Activity
1,O=C(NCc1ccccc1Cl)[C@@H]1CCC(=O)N1Cc1ccccc1Cl,Non-Toxic
2,O=C(NCc1ccccc1Cl)[C@@H]1CCC(=O)N1c1ccccc1,Non-Toxic
3,O=C(NCc1ccc(Cl)cc1Cl)[C@@H]1CCC(=O)N1c1nccs1,Non-Toxic
4,Cc1ccc(NC(=O)[C@@H]2CCC(=O)N2c2ccccc2)cc1,Non-Toxic

# System: MDA-MB-435
# Test: Cytotoxicity against human MDA-MB-435 cells assessed as effect on cell growth at 10 uM incubated for 48 hrs by sulforhodamine B assay
# Type: cell-based
# Conditions: mda-mb-435, 48 h
row,SMILES,Activity
1,O=C(NCc1ccccc1Cl)[C@@H]1CCC(=O)N1Cc1ccccc1Cl,Non-Toxic
2,O=C(NCc1ccccc1Cl)[C@@H]1CCC(=O)N1c1ccccc1,Non-Toxic
3,O=C(NCc1ccc(Cl)cc1Cl)[C@@H]1CCC(=O)N1c1nccs1,Non-Toxic
4,Cc1ccc(NC(=O)[C@@H]2CCC(=O)N2c2ccccc2)cc1,Non-Toxic

# System: SK-MEL-2
# Test: Cytotoxicity against human SK-MEL-2 cells assessed as effect on cell growth at 10 uM incubated for 48 hrs by sulforhodamine B assay
# Type: cell-based
# Conditions: sk-mel-2, 48 h
row,SMILES,Activity
1,O=C(NCc1ccccc1Cl)[C@@H]1CCC(=O)N1Cc1ccccc1Cl,Non-Toxic
2,O=C(NCc1ccccc1Cl)[C@@H]1CCC(=O)N1c1ccccc1,Non-Toxic
3,O=C(NCc1ccc(Cl)cc1Cl)[C@@H]1CCC(=O)N1c1nccs1,Non-Toxic
4,Cc1ccc(NC(=O)[C@@H]2CCC(=O)N2c2ccccc2)cc1,Non-Toxic

# System: SK-MEL-28
# Test: Cytotoxicity against human SK-MEL-28 cells assessed as effect on cell growth at 10 uM incubated for 48 hrs by sulforhodamine B assay
# Type: cell-based
# Conditions: sk-mel-28, 48 h
row,SMILES,Activity
1,O=C(NCc1ccccc1Cl)[C@@H]1CCC(=O)N1Cc1ccccc1Cl,Non-Toxic
2,O=C(NCc1ccccc1Cl)[C@@H]1CCC(=O)N1c1ccccc1,Non-Toxic
3,O=C(NCc1ccc(Cl)cc1Cl)[C@@H]1CCC(=O)N1c1nccs1,Non-Toxic
4,Cc1ccc(NC(=O)[C@@H]2CCC(=O)N2c2ccccc2)cc1,Non-Toxic

# System: SK-MEL-5
# Test: Cytotoxicity against human SK-MEL-5 cells assessed as effect on cell growth at 10 uM incubated for 48 hrs by sulforhodamine B assay
# Type: cell-based
# Conditions: sk-mel-5, 48 h
row,SMILES,Activity
1,O=C(NCc1ccccc1Cl)[C@@H]1CCC(=O)N1Cc1ccccc1Cl,Non-Toxic
2,O=C(NCc1ccccc1Cl)[C@@H]1CCC(=O)N1c1ccccc1,Non-Toxic
3,O=C(NCc1ccc(Cl)cc1Cl)[C@@H]1CCC(=O)N1c1nccs1,Non-Toxic
4,Cc1ccc(NC(=O)[C@@H]2CCC(=O)N2c2ccccc2)cc1,Non-Toxic

# System: UACC-257
# Test: Cytotoxicity against human UACC257 cells assessed as effect on cell growth at 10 uM incubated for 48 hrs by sulforhodamine B assay
# Type: cell-based
# Conditions: uacc-257, 48 h
row,SMILES,Activity
1,O=C(NCc1ccccc1Cl)[C@@H]1CCC(=O)N1Cc1ccccc1Cl,Non-Toxic
2,O=C(NCc1ccccc1Cl)[C@@H]1CCC(=O)N1c1ccccc1,Non-Toxic
3,O=C(NCc1ccc(Cl)cc1Cl)[C@@H]1CCC(=O)N1c1nccs1,Non-Toxic
4,Cc1ccc(NC(=O)[C@@H]2CCC(=O)N2c2ccccc2)cc1,Non-Toxic

# System: OVCAR-3
# Test: Cytotoxicity against human OVCAR3 cells assessed as effect on cell growth at 10 uM incubated for 48 hrs by sulforhodamine B assay
# Type: cell-based
# Conditions: ovcar-3, 48 h
row,SMILES,Activity
1,O=C(NCc1ccccc1Cl)[C@@H]1CCC(=O)N1Cc1ccccc1Cl,Non-Toxic
2,O=C(NCc1ccccc1Cl)[C@@H]1CCC(=O)N1c1ccccc1,Non-Toxic
3,O=C(NCc1ccc(Cl)cc1Cl)[C@@H]1CCC(=O)N1c1nccs1,Non-Toxic
4,Cc1ccc(NC(=O)[C@@H]2CCC(=O)N2c2ccccc2)cc1,Non-Toxic

# System: OVCAR-4
# Test: Cytotoxicity against human OVCAR4 cells assessed as effect on cell growth at 10 uM incubated for 48 hrs by sulforhodamine B assay
# Type: cell-based
# Conditions: ovcar-4, 48 h
row,SMILES,Activity
1,O=C(NCc1ccccc1Cl)[C@@H]1CCC(=O)N1Cc1ccccc1Cl,Non-Toxic
2,O=C(NCc1ccccc1Cl)[C@@H]1CCC(=O)N1c1ccccc1,Non-Toxic
3,O=C(NCc1ccc(Cl)cc1Cl)[C@@H]1CCC(=O)N1c1nccs1,Non-Toxic
4,Cc1ccc(NC(=O)[C@@H]2CCC(=O)N2c2ccccc2)cc1,Non-Toxic

# System: CAKI-1
# Test: Growth inhibition of human Caki1 cells assessed as growth percentage at 10 uM incubated for 48 hrs by sulforhodamine B assay
# Type: cell-based
# Conditions: caki-1, 48 h
row,SMILES,Activity
1,O=C(NCc1ccccc1Cl)[C@@H]1CCC(=O)N1Cc1ccccc1Cl,Non-Toxic
2,O=C(NCc1ccccc1Cl)[C@@H]1CCC(=O)N1c1ccccc1,Non-Toxic
3,O=C(NCc1ccc(Cl)cc1Cl)[C@@H]1CCC(=O)N1c1nccs1,Non-Toxic
4,Cc1ccc(NC(=O)[C@@H]2CCC(=O)N2c2ccccc2)cc1,Non-Toxic

# System: RXF 393
# Test: Cytotoxicity against human RXF393 cells assessed as effect on cell growth at 10 uM incubated for 48 hrs by sulforhodamine B assay
# Type: cell-based
# Conditions: rxf 393, 48 h
row,SMILES,Activity
1,O=C(NCc1ccccc1Cl)[C@@H]1CCC(=O)N1Cc1ccccc1Cl,Non-Toxic
2,O=C(NCc1ccccc1Cl)[C@@H]1CCC(=O)N1c1ccccc1,Non-Toxic
3,O=C(NCc1ccc(Cl)cc1Cl)[C@@H]1CCC(=O)N1c1nccs1,Non-Toxic
4,Cc1ccc(NC(=O)[C@@H]2CCC(=O)N2c2ccccc2)cc1,Non-Toxic

# System: SN12C
# Test: Cytotoxicity against human SN12C cells assessed as effect on cell growth at 10 uM incubated for 48 hrs by sulforhodamine B assay
# Type: cell-based
# Conditions: not given
row,SMILES,Activity
1,O=C(NCc1ccccc1Cl)[C@@H]1CCC(=O)N1Cc1ccccc1Cl,Non-Toxic
2,O=C(NCc1ccccc1Cl)[C@@H]1CCC(=O)N1c1ccccc1,Non-Toxic
3,O=C(NCc1ccc(Cl)cc1Cl)[C@@H]1CCC(=O)N1c1nccs1,Non-Toxic
4,Cc1ccc(NC(=O)[C@@H]2CCC(=O)N2c2ccccc2)cc1,Non-Toxic

# System: MCF7
# Test: Cytotoxicity against human MCF7 cells assessed as effect on cell growth at 10 uM incubated for 48 hrs by sulforhodamine B assay
# Type: cell-based
# Conditions: mcf7, 48 h
row,SMILES,Activity
1,O=C(NCc1ccccc1Cl)[C@@H]1CCC(=O)N1Cc1ccccc1Cl,Non-Toxic
2,O=C(NCc1ccccc1Cl)[C@@H]1CCC(=O)N1c1ccccc1,Non-Toxic
3,O=C(NCc1ccc(Cl)cc1Cl)[C@@H]1CCC(=O)N1c1nccs1,Non-Toxic
4,Cc1ccc(NC(=O)[C@@H]2CCC(=O)N2c2ccccc2)cc1,Non-Toxic

# System: MDA-MB-231
# Test: Cytotoxicity against human MDA-MB-231 cells assessed as effect on cell growth at 10 uM incubated for 48 hrs by sulforhodamine B assay
# Type: cell-based
# Conditions: mda-mb-231, 48 h
row,SMILES,Activity
1,O=C(NCc1ccccc1Cl)[C@@H]1CCC(=O)N1Cc1ccccc1Cl,Non-Toxic
2,O=C(NCc1ccccc1Cl)[C@@H]1CCC(=O)N1c1ccccc1,Non-Toxic
3,O=C(NCc1ccc(Cl)cc1Cl)[C@@H]1CCC(=O)N1c1nccs1,Non-Toxic
4,Cc1ccc(NC(=O)[C@@H]2CCC(=O)N2c2ccccc2)cc1,Non-Toxic

# System: Hs-578T
# Test: Cytotoxicity against human Hs 578T cells assessed as effect on cell growth at 10 uM incubated for 48 hrs by sulforhodamine B assay
# Type: cell-based
# Conditions: not given
row,SMILES,Activity
1,O=C(NCc1ccccc1Cl)[C@@H]1CCC(=O)N1Cc1ccccc1Cl,Non-Toxic
2,O=C(NCc1ccccc1Cl)[C@@H]1CCC(=O)N1c1ccccc1,Non-Toxic
3,O=C(NCc1ccc(Cl)cc1Cl)[C@@H]1CCC(=O)N1c1nccs1,Non-Toxic
4,Cc1ccc(NC(=O)[C@@H]2CCC(=O)N2c2ccccc2)cc1,Non-Toxic

# System: BT-549
# Test: Cytotoxicity against human BT549 cells assessed as effect on cell growth at 10 uM incubated for 48 hrs by sulforhodamine B assay
# Type: cell-based
# Conditions: bt-549, 48 h
row,SMILES,Activity
1,O=C(NCc1ccccc1Cl)[C@@H]1CCC(=O)N1Cc1ccccc1Cl,Non-Toxic
2,O=C(NCc1ccccc1Cl)[C@@H]1CCC(=O)N1c1ccccc1,Non-Toxic
3,O=C(NCc1ccc(Cl)cc1Cl)[C@@H]1CCC(=O)N1c1nccs1,Non-Toxic
4,Cc1ccc(NC(=O)[C@@H]2CCC(=O)N2c2ccccc2)cc1,Non-Toxic

# Reference: ChEMBL document CHEMBL4627246, “Pyroglutamide-Based P2X7 Receptor Antagonists Targeting Inflammatory Bowel Disease” (J Med Chem, 2020)
